{"source": "patent US20190247371A1", "about": "“METHODS FOR TREATING SMALL CELL LUNG CANCERS BY USING PHARMACEUTICAL COMPOSITIONS OR COMBINATIONS COMPRISING INDOLIZINO[6,7-B]INDOLE DERIVATIVES” (priority 2016, published 2019)", "key": {"[1]": {"tested_on": "SCLC H211 cells", "test": "Cell cycle analysis by flow cytometry, H211 cells", "type": "cell-based", "conditions": "24, 48, 72 h, FIG. 9", "procedure": "H211 cells were treated with various concentrations of (A) BO-1978, (B) BMN-673, or (C) BO-1978 plus BMN-673 at 24, 48, and 72 h. At the end of treatment, the cells were harvested by trypsinization, fixed in ice-cold ethanol, stained with propidium iodide, and subjected to cell cycle analysis with a flow cytometer.\nIn the present invention, the SCLC H211 cells were treated with the combination of BO-1978 and BMN 673 or HY-10130 for 72 h. Cell survival was analyzed by PrestoBlue Assay. The combination index (CI) was calculated using CompuSyn software (Chou 2006^61)."}, "[2]": {"tested_on": "H82 cells", "test": "alamarBlue cytotoxicity assay, SCLC H82 cells", "type": "cell-based", "conditions": "read-out: IC50, concentration required to inhibit cell growth by 50%", "procedure": "(§1) The inhibitory effect of BO-1978 on the cell growth of SCLC cell lines in vitro was examined. The cytotoxicity was assayed using alamarBlue® reagent (AbD Serotec) as previously described in U.S. Pat. No. 8,703,951 B2. In brief, H82, H211 and H526 cells were seeded to a 96 well plate with 5000, 1000 and 3000 cells per well, respectively, and incubated for 24 h. The growing cells were treated with BO-1978, cisplatin, etoposide or irinotecan at serial-diluted concentrations for 72 h at 37° C. An aliquot of alamarBlue® reagent (AbD Serotec) was added and the cultures were incubated for 5 h. The fluorescence at excitation 530 nm and emission 590 nm was read with a plate reader. The proliferation rate was calculated according to the manufacturer's instruction. The values of IC50 (50% inhibition concentration) for each compound were determined from dose-effect relationship using the CompuSyn software (Chou 2010^44)."}, "[3]": {"tested_on": "SCLC H526 cells", "test": "SCLC H526 tumor xenograft model, single agents", "type": "in vivo", "conditions": "for body weight change: doses within MTD: BO-1978 40 mg/kg QD×5, etoposide 10 mg/kg Q2D×3, irinotecan 30 mg/kg QD×6, cisplatin 6 mg/kg Q4D×3, FIG. 2B", "procedure": "H526 cells (1×10^7) were subcutaneously implanted into nude mice. […] Tumor size and body weight were taken at the time indicated. A, average tumor size changes; B, average body weight changes; and C, Kaplan-Meyer survival curves.\nThe animals used in this study were treated exactly according to the guidelines of the Academia Sinica Institutional Animal Care and Utilization Committee. Male athymic nude mice in 5 weeks of age were obtained from the National Laboratory Animal Center (Taipei, Taiwan) and housed for 1 week before performing experiments H526 cells (1×10^7) were subcutaneously implanted into nude mice (five groups, each 4 mice). […] Etoposide (10 mg/kg Q2D×3), irinotecan (30 mg/kg QD×6), and cisplatin (6 mg/kg Q4D×3) were used as the positive control and were administered as indicated."}, "[4]": {"tested_on": "NSCLC cells", "conditions": "in vitro; cited from earlier work"}, "[5]": {"tested_on": "SCLC H211", "test": "SCLC H211 xenograft, BO-1978 and irinotecan alone or in combination", "type": "in vivo, nude mice", "text": "H211 cells (3×10^6) were subcutaneously implanted into nude mice. When tumor size reached 100-200 mm^3, BO-1978 and irinotecan, cither alone or in combination were i.v. administered as indicated. Tumor size and body weight were taken at the time indicated. A, tumor size; and B, body weight.\nIn another experiment, the therapeutic efficacy of BO-1978 (alone) or in combination with irinotecan against SCLC H211 was investigated in xenograft models (FIG. 7). The H211 bearing mice (n=5) were administered with BO-1978 (alone, 40 mg/kg, QD×5), irinotecan (alone, 30 mg/kg, QD×5), and BO-1978 (40 mg/kg)+irinotecan (30 mg/kg) (QD×5) via iv inj."}, "[6]": {"tested_on": "EGFR wild-type and mutant NSCLC tumors", "conditions": "cited from earlier work"}, "[7]": {"tested_on": "PC9/gef B4 cells", "conditions": "cited from earlier work"}, "[8]": {"tested_on": "H526 cells", "test": "alamarBlue combined treatment cytotoxicity, H526 cells", "type": "cell-based", "conditions": "co-treated with irinotecan at various ratios, 72 h, FIG. 4", "procedure": "Cell survival was analyzed using alamarBlue assay. CI indicates combination index A, BO-1978 and cisplatin; B, BO-1978 and etoposide; and C, BO-1978 and irinotecan.\n(§2) Combination therapy is therapy that uses more than one drug for therapy. […] The resulting combination index (CI) theorem of Chou-Talalay offers quantitative definition for additive effect (CI=1), synergism (CI<1), and antagonism (CI>1) in drug combinations (Chou 2010^44)."}, "[9]": {"tested_on": "H526 cells", "test": "alamarBlue cytotoxicity assay, SCLC H526 cells", "type": "cell-based", "conditions": "read-out: IC50, concentration required to inhibit cell growth by 50%", "procedure": "as §1"}, "[10]": {"tested_on": "SCLC H526 xenografts", "test": "SCLC H526 xenograft, BO-1978 and irinotecan alone or in combination", "type": "in vivo, nude mice", "procedure": "H526 cells (1×10^7) were subcutaneously implanted into nude mice. When tumor size reached 100-200 mm^3, BO-1978 and irinotecan, either alone or in combination were i.v. administered as indicated. Tumor size and body weight were taken at the time indicated A, tumor size; and B, body weight.\nThe mice (n=5) bearing SCLC H526 xenografts were treated with BO-1978 (alone, 40 mg/kg, Q2D×5), irinotecan (alone, 30 mg/kg, Q2D×5), and BO-1978 (40 mg/kg)+irinotecan (30 mg/kg) (Q2D×5) via iv inj."}, "[11]": {"tested_on": "H211 cells", "test": "alamarBlue cytotoxicity assay, SCLC H211 cells", "type": "cell-based", "conditions": "read-out: IC50, concentration required to inhibit cell growth by 50%", "procedure": "as §1"}, "[12]": {"conditions": "preclinical toxicity studies; cited from earlier work"}, "[13]": {"tested_on": "SCLC H211 cells", "test": "SCLC H211 tumor xenograft model, single agents", "type": "in vivo, nude mice", "conditions": "same dosages and route as H526 study, FIG. 3", "procedure": "H211 (3×10^6) were subcutaneously implanted into nude mice. When rumor size reached 100-200 mm^3, BO-1978, etoposide, irinotecan, and cisplatin were i.v. administered as indicated. Tumor size and body weight were taken at the time indicated. A, tumor size; and B, body weight.\nIn another experiment, the effect of BO-1978 on the inhibition of SCLC H211 cells, a fast growing cell line, was evaluated in xenograft model. Mice were treated with the tested compounds under the same dosages and administration route as described above."}, "[14]": {"tested_on": "H211 cells", "test": "alamarBlue combined treatment cytotoxicity, H211 cells", "type": "cell-based", "conditions": "co-treated with irinotecan at various ratios, 72 h, FIG. 5", "procedure": "H211 cells were seeded and treated with various concentrations of BO-1978, or therapeutic agents either alone or in combination for 72 h. Cell survival was analyzed using alamarBlue assay. CI indicates combination index. A, BO-1978 and cisplatin; B, BO-1978 and etoposide; and C, BO-1978 and irinotecan.\nas §2"}}, "note": "Like-named read-outs stand apart in the source and are kept apart here.", "data": [{"smiles": "Cn1ncnc1[C@H]1c2n[nH]c(=O)c3cc(F)cc(c23)N[C@@H]1c1ccc(F)cc1", "note": "[BMN 673, (8S,9R)-5-Fluoro-8-(4-fluorophenyl)-9-(1-methyl-1H-1,2,4-triazol-5-yl)-2,7,8,9-tetrahydro-3H-pyrido[4,3,2-de]phthalazin-3-one, reference compound]", "values": [{"measurement": "effect on G2/M phase of cell cycle", "setting": "[1]", "result": "delayed the progression of the G2/M phase"}, {"measurement": "subG1 cells (apoptotic death)", "setting": "[1]", "result": "did not induce subG1 cells"}]}, {"smiles": "CCc1c(CO)c(CO)c2n1Cc1c(c3ccccc3n1C)C2", "note": "[BO-1978, [3-ethyl-6-methyl-6,11-dihydro-5H-indolizino[6,7-b]indole-1,2-diyl]dimethanol]", "values": [{"measurement": "IC50", "setting": "[2]; Homo sapiens, NCI-H82, H82, 72 h, mean ± S.D. of 3 independent experiments", "result": "350 ± 280", "unit": "nM"}, {"measurement": "therapeutic effect on tumor size", "setting": "[3]; BO-1978 40 mg/kg QD×5 iv, FIG. 2A", "result": "more efficacious than etoposide, irinotecan and cisplatin"}, {"measurement": "body weight change", "setting": "[3]", "result": "did not cause body weight lost"}, {"measurement": "survival term", "setting": "[3]; one out of 4 mice, FIG. 2C", "result": "> 430", "unit": "days"}, {"measurement": "cytotoxicity against cell growth of various NSCLC cells", "setting": "[4]", "result": "significant cytotoxicity"}, {"measurement": "therapeutic efficacy, mono-drug comparison", "setting": "[5]; 40 mg/kg QD×5 iv, n=5", "result": "more potent than irinotecan (alone)"}, {"measurement": "day of tumor relapse", "setting": "[5]; QD×5 iv", "result": 18, "unit": "days"}, {"measurement": "day tumor CR was seen", "setting": "[5]; QD×5 iv", "result": 14, "unit": "days"}, {"measurement": "body weight loss", "setting": "[6]; xenograft and orthotopic lung tumor models", "result": "negligible body weight loss"}, {"measurement": "therapeutic efficacy in nude mice bearing NSCLC", "setting": "[6]; xenograft and orthotopic models", "result": "potent therapeutic efficacy"}, {"measurement": "killing of cells with acquired gefitinib resistance", "setting": "[7]", "result": "effectively kills"}, {"measurement": "cytotoxicity of co-treatment", "setting": "[8]", "result": "enhanced the cytotoxicity"}, {"measurement": "IC50", "setting": "[9]; Homo sapiens, NCI-H526, H526, 72 h, mean ± S.D. of 3 independent experiments", "result": "76 ± 26", "unit": "nM"}, {"measurement": "tumor growth suppression", "setting": "[10]; 40 mg/kg Q2D×5 iv, n=5", "result": "significantly suppressed tumor growth"}, {"measurement": "mice with complete remission (CR)", "setting": "[10]; day 14, Q2D×5 iv", "result": "4/5"}, {"measurement": "mice with tumor <100 mm3", "setting": "[10]; day 14, Q2D×5 iv", "result": "1/5"}, {"measurement": "IC50", "setting": "[11]; Homo sapiens, NCI-H211, H211, 72 h, mean ± S.D. of 3 independent experiments", "result": "148 ± 1", "unit": "nM"}, {"measurement": "toxicity in mice", "setting": "[12]", "result": "does not cause apparent toxicity"}, {"measurement": "effect on G2/M phase of cell cycle", "setting": "[1]", "result": "induced severe G2/M arrest"}, {"measurement": "subG1 cells (apoptotic death)", "setting": "[1]", "result": "appearance of the subG1 cells at high doses"}, {"measurement": "inhibition of tumor growth", "setting": "[13]", "result": "more potent than the drugs used for comparison"}, {"measurement": "cytotoxicity of co-treatment", "setting": "[14]", "result": "enhanced the cytotoxicity"}]}, {"smiles": "N.N.[Cl][Pt][Cl]", "note": "[Cisplatin, cis-diaminedichloroplatinum]", "values": [{"measurement": "IC50", "setting": "[2]; H82, 72 h, mean ± S.D. of 3 independent experiments", "result": "340 ± 80", "unit": "nM"}, {"measurement": "day mice were sacrificed because tumor size was over 2,500 mm^3", "setting": "[3]", "result": 35, "unit": "days"}, {"measurement": "body weight change", "setting": "[3]", "result": "did not cause body weight lost"}, {"measurement": "IC50", "setting": "[9]; H526, 72 h, mean ± S.D. of 3 independent experiments", "result": "660 ± 250", "unit": "nM"}, {"measurement": "IC50", "setting": "[11]; H211, 72 h, mean ± S.D. of 3 independent experiments", "result": "570 ± 290", "unit": "nM"}]}, {"smiles": "COc1cc([C@@H]2c3cc4c(cc3[C@@H](O[C@@H]3O[C@@H]5CO[C@@H](C)O[C@H]5[C@H](O)[C@H]3O)[C@H]3COC(=O)[C@H]23)OCO4)cc(OC)c1O", "note": "[Etoposide]", "values": [{"measurement": "IC50", "setting": "[2]; Homo sapiens, NCI-H82, 72 h", "result": "146 ± 2", "unit": "nM"}, {"measurement": "day mice were sacrificed because tumor size was over 2,500 mm^3", "setting": "[3]", "result": 35, "unit": "days"}, {"measurement": "body weight change", "setting": "[3]", "result": "did not cause body weight lost"}, {"measurement": "IC50", "setting": "[9]; Homo sapiens, NCI-H526, 72 h", "result": "50 ± 20", "unit": "nM"}, {"measurement": "IC50", "setting": "[11]; Homo sapiens, NCI-H211, 72 h", "result": "70 ± 30", "unit": "nM"}]}, {"smiles": "CCc1c2c(nc3ccc(OC(=O)N4CCC(N5CCCCC5)CC4)cc13)-c1cc3c(c(=O)n1C2)COC(=O)[C@]3(O)CC", "note": "[Irinotecan]", "values": [{"measurement": "IC50", "setting": "[2]; Homo sapiens, NCI-H82, 72 h", "result": "1200 ± 70", "unit": "nM"}, {"measurement": "day mice were sacrificed because tumor size was over 2,500 mm^3", "setting": "[3]", "result": 45, "unit": "days"}, {"measurement": "body weight change", "setting": "[3]", "result": "did not cause body weight lost"}, {"measurement": "IC50", "setting": "[9]; Homo sapiens, NCI-H526, 72 h", "result": "1180 ± 570", "unit": "nM"}, {"measurement": "day of tumor relapse", "setting": "[10]; 30 mg/kg Q2D×5 iv", "result": 15, "unit": "days"}, {"measurement": "IC50", "setting": "[11]; Homo sapiens, NCI-H211, 72 h", "result": "30 ± 10", "unit": "nM"}]}]}
